Series [1] relates to HT-29. Put plainly: Anti-necroptic activity in human HT-29 cells assessed as inhibition of TSZ induced necroptosis measured after 16 to 24 hrs by celltiter-glo luminescent cell viability assay. In kind it is functional, cell-based. Background: ATP-based viability assays read luminescence as a measure of living cells.
The test system of series [2] is Mus musculus. Put plainly: Anti-necroptic activity against mTNFalpha induced C57BL/6J mouse systemic inflammatory response syndrome model assessed as survival rate pretreated with compound at 5 to 20 mg/kg, IG administered as single dose followed by mTNFalpha injection and measured over 60 hrs. In kind it is functional. The settings on record: dose 5-20 mg/kg.
The nature of series [3]: Cytotoxicity against human HT-29 cells assessed as reduction in cell viability. In kind it is toxicity, cell-based.
The test system of series [4] is HT-29. Briefly: Anti-necroptic activity in human HT-29 cells assessed as inhibition of TCZ induced necroptosis measured after 16 hrs by celltiter-glo luminescent cell viability assay. The settings on record: dose 0.781-200 nM, DDE = dose-dependent effect. The class given is functional, cell-based.
For series [5], the system named is HT-29. Put plainly: Inhibition of RIPK1-RIPK3-MLKL pathway in TSZ induced human HT-29 cells assessed as reduction in necrosome formation at 20 nM measured after 6 hrs by Western blot analysis. In kind it is cell-based. In general terms: A western blot detects proteins with antibodies after separation by electrophoresis.
Series [6] addresses Receptor-interacting serine/threonine-protein kinase 3 (Homo sapiens) (UniProt Q9Y572). Briefly: Inhibition of RIPK3 phosphorylation in TSZ-induced human HT-29 cells at 20 nM pretreated with compound followed by TSZ stimulation and measured after 2 to 6 hrs by immunoblotting analysis. The settings on record: time 2-6 hrs. The class given is cell-based.
Series [7] addresses T1, Receptor-interacting serine/threonine-protein kinase 1 (Homo sapiens) (UniProt Q13546).
T1 sequence (whole entry): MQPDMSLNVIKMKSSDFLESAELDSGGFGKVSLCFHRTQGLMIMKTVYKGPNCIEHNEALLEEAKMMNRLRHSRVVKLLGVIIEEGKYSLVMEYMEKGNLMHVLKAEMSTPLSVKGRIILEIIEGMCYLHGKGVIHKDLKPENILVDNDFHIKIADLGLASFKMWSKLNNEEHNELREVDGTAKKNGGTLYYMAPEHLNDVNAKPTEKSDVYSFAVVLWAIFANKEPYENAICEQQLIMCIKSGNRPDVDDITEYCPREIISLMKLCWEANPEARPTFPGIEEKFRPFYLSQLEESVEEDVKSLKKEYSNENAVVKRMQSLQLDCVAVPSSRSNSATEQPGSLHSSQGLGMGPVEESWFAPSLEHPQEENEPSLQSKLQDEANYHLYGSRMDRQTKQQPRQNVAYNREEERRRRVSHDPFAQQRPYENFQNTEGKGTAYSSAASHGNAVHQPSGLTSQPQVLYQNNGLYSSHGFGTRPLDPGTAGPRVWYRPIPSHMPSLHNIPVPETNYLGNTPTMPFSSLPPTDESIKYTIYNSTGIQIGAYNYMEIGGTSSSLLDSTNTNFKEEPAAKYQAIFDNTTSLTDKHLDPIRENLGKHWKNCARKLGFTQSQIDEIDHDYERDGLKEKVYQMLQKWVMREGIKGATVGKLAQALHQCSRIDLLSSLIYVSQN
Briefly: Inhibition of RIPK1 phosphorylation in TSZ-induced human HT-29 cells at 5 to 20 nM pretreated with compound followed by TSZ stimulation and measured after 6 hrs by immunoblotting analysis. The class given is cell-based. The conditions noted are these: dose 5-20 nM.

Series [8] deals with HT-29. Briefly: Anti-necroptic activity in human HT-29 cells assessed as inhibition of TSZ induced necroptosis measured after 12 hrs by celltiter-glo luminescent cell viability assay. In kind it is functional, cell-based. The conditions noted are these: dose 0.195-200 nM, DDE = dose-dependent effect.
In a further series the test system is L929. Briefly: Anti-necroptic activity in mouse L929 cells assessed as inhibition of TZ induced necroptosis pretreated with compound followed by TZ addition and measured after 12 hrs by celltiter-glo luminescent cell viability assay. In kind it is functional, cell-based. The settings on record: dose 0.078-10 µM, DDE = dose-dependent effect.
Series [9] concerns the target T2, Mixed lineage kinase domain-like protein (Homo sapiens) (UniProt Q8NB16).
T2 sequence (whole entry): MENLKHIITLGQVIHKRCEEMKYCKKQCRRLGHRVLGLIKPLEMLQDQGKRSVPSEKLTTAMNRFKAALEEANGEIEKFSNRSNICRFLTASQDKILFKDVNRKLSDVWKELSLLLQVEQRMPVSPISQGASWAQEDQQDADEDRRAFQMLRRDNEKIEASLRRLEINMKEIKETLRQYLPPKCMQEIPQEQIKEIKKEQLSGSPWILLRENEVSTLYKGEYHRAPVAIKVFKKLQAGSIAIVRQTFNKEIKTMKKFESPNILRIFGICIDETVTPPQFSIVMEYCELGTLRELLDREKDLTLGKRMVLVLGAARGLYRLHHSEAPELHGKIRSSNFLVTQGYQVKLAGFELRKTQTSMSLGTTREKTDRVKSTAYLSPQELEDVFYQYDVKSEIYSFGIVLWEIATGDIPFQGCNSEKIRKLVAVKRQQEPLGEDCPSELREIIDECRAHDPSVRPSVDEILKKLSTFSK
Briefly: Inhibition of MLKL phosphorylation in TSZ-induced human HT-29 cells at 5 to 20 nM pretreated with compound followed by TSZ stimulation and measured after 6 hrs by immunoblotting analysis. The class given is cell-based. The settings on record: dose 5-20 nM.

Series [10] concerns the target Receptor-interacting serine/threonine-protein kinase 3 (Homo sapiens) (UniProt Q9Y572). Briefly: Inhibition of RIPK3 phosphorylation in TSZ-induced human HT-29 cells at 5 to 20 nM pretreated with compound followed by TSZ stimulation and measured after 6 hrs by immunoblotting analysis. The class given is cell-based. The conditions noted are these: dose 5-20 nM.
Series [11] deals with T3, Receptor-interacting serine/threonine-protein kinase 1 (Homo sapiens, UniProt Q13546).
T3 sequence (Q13546 whole entry): T1 sequence (whole entry)
Put plainly: Binding affinity to wild-type human partial length RIPK1 (M1 to K305 residues) expressed in bacterial expression system incubated for 1 hr under shaking condition by Kinomescan method.

Series [12] addresses T2, Mixed lineage kinase domain-like protein (Homo sapiens). Briefly: Inhibition of MLKL phosphorylation in TSZ-induced human HT-29 cells pretreated with compound followed by TSZ stimulation and measured after 6 hrs by immunoblotting analysis. The class given is cell-based. The settings on record: dose 0.5-20 nM, DDE = dose-dependent effect.
For series [13] the target is unchanged. Briefly: Inhibition of downstream MLKL phosphorylation in TSZ-induced human HT-29 cells at 20 nM pretreated with compound followed by TSZ stimulation and measured after 2 to 6 hrs by immunoblotting analysis. In kind it is cell-based. The conditions noted are these: time 2-6 hrs.
Series [14] relates to Mus musculus. Briefly: Anti-necroptic activity against mTNFalpha-induced systemic inflammatory response syndrome C57BL/6J mouse model assessed as protection of body temperature pretreated with compound at 5 to 20 mg/kg, IG administered as single dose followed by mTNFalpha injection measured after 2 to 3 hrs. The class given is functional, organism-based. The settings on record: dose 5-20 mg/kg, time 2-3 hrs.

Series [15] has as its target Receptor-interacting serine/threonine-protein kinase 3 (Homo sapiens) (UniProt Q9Y572). Put plainly: Inhibition of RIPK3 phosphorylation in TSZ-induced human HT-29 cells pretreated with compound followed by TSZ stimulation and measured after 6 hrs by immunoblotting analysis. The conditions noted are these: dose 0.5-20 nM, DDE = dose-dependent effect. In kind it is cell-based.

Series [16] deals with T1, Receptor-interacting serine/threonine-protein kinase 1 (Homo sapiens). Put plainly: Inhibition of RIPK1 phosphorylation in TSZ-induced human HT-29 cells at 20 nM pretreated with compound followed by TSZ stimulation and measured after 2 to 6 hrs by immunoblotting analysis. The class given is cell-based. The conditions noted are these: time 2-6 hrs.
For series [17] the target is unchanged. Put plainly: Inhibition of RIPK1 phosphorylation in TSZ-induced human HT-29 cells pretreated with compound followed by TSZ stimulation and measured after 6 hrs by immunoblotting analysis. The class given is cell-based. The settings on record: dose 0.5-20 nM, DDE = dose-dependent effect.
The test system of the next series is U-937. Briefly: Anti-necroptic activity in human U-937 cells assessed as inhibition of TSZ induced necroptosis pretreated with compound followed by TSZ addition ans measured after 12 hrs by celltiter-glo luminescent cell viability assay. The class given is functional, cell-based. The settings on record: dose 0.312-200 nM, DDE = dose-dependent effect.
Series [18] concerns HT-29. Briefly: Inhibition of RIPK1-RIPK3-MLKL pathway in TSZ induced human HT-29 cells assessed as reduction in necrosome formation at 10 nM measured after 6 hrs by Western blot analysis. The class given is cell-based.
Series [19] deals with Receptor-interacting serine/threonine-protein kinase 3 (Homo sapiens) (UniProt Q9Y572). Put plainly: Inhibition of RIPK3 phosphorylation in TSZ-induced human HT-29 cells at 10 nM pretreated with compound followed by TSZ stimulation and measured after 2 to 6 hrs by immunoblotting analysis. In kind it is cell-based. The settings on record: time 2-6 hrs.
Receptor-interacting serine/threonine-protein kinase 3 (Homo sapiens), sequence (Q9Y572 whole entry, looked up): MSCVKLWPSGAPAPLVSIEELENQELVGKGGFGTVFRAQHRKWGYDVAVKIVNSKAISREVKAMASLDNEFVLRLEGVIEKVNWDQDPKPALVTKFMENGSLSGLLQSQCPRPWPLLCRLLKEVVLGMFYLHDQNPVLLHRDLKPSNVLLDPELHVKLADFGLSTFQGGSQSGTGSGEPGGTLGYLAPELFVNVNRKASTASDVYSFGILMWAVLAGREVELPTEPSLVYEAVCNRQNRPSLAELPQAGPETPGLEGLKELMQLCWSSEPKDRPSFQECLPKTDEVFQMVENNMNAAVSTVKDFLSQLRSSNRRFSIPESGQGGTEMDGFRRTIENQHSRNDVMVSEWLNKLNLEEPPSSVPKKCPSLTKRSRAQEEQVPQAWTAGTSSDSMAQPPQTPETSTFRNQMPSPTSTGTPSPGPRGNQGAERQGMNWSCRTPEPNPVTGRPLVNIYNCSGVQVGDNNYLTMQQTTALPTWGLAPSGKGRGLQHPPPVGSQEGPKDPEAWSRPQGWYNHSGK
Series [20] concerns Mus musculus. Briefly: Anti-necroptic activity against mTNFalpha induced C57BL/6J mouse systemic inflammatory response syndrome model assessed as survival rate pretreated with compound at 10 mg/kg, IG administered as single dose followed by mTNFalpha injection and measured over 60 hrs. In kind it is functional.
Series [21] has as its target T1, Receptor-interacting serine/threonine-protein kinase 1 (Homo sapiens). Briefly: Inhibition of RIPK1 phosphorylation in TSZ-induced human HT-29 cells at 10 nM pretreated with compound followed by TSZ stimulation and measured after 2 to 6 hrs by immunoblotting analysis. The conditions noted are these: time 2-6 hrs. In kind it is cell-based.
Series [22] has as its system Mus musculus. Briefly: Anti-necroptic activity against mTNFalpha induced C57BL/6J mouse systemic inflammatory response syndrome model assessed as survival rate pretreated with compound at 15 mg/kg, IG administered as single dose followed by mTNFalpha injection and measured over 60 hrs. The class given is functional.
For series [23], the target named is T1, Receptor-interacting serine/threonine-protein kinase 1 (Homo sapiens). Put plainly: Inhibition of RIPK1 phosphorylation in TSZ-induced human HT-29 cells at 2 to 4 nM pretreated with compound followed by TSZ stimulation and measured after 6 hrs by immunoblotting analysis. The class given is cell-based. The settings on record: dose 2-4 nM.
Series [24] deals with Mus musculus. Briefly: Anti-necroptic activity against mTNFalpha induced C57BL/6J mouse systemic inflammatory response syndrome model assessed as survival rate pretreated with compound at 5 mg/kg, IG administered as single dose followed by mTNFalpha injection and measured over 60 hrs. In kind it is functional.
Series [25] has as its target T2, Mixed lineage kinase domain-like protein (Homo sapiens). Put plainly: Inhibition of MLKL phosphorylation in TSZ-induced human HT-29 cells at 2 to 4 nM pretreated with compound followed by TSZ stimulation and measured after 6 hrs by immunoblotting analysis. The class given is cell-based. The settings on record: dose 2-4 nM.
In series [26] the target is Receptor-interacting serine/threonine-protein kinase 3 (Homo sapiens) (UniProt Q9Y572). Put plainly: Inhibition of RIPK3 phosphorylation in TSZ-induced human HT-29 cells at 2 to 4 nM pretreated with compound followed by TSZ stimulation and measured after 6 hrs by immunoblotting analysis. The conditions noted are these: dose 2-4 nM. In kind it is cell-based.
The subject of series [27] is Mus musculus. Put plainly: Anti-necroptic activity against mTNFalpha-induced systemic inflammatory response syndrome C57BL/6J mouse model assessed as protection of body temperature pretreated with compound at 5 to 15 mg/kg, IG administered as single dose followed by mTNFalpha injection measured after 2 to 3 hrs. The settings on record: dose 5-15 mg/kg, time 2-3 hrs. In kind it is functional, organism-based.

Series [28] concerns the target T2, Mixed lineage kinase domain-like protein (Homo sapiens). Briefly: Inhibition of downstream MLKL phosphorylation in TSZ-induced human HT-29 cells at 10 nM pretreated with compound followed by TSZ stimulation and measured after 2 to 6 hrs by immunoblotting analysis. In kind it is cell-based. The conditions noted are these: time 2-6 hrs.

Activity calls are given as the source filed them. No cut-off for these calls is given here.

As to `CN1C(=S)[C@@H](NC(=O)c2nc(Cc3ccccc3)n(CCF)n2)COc2ccccc21`, the EC50 (as a rule, the concentration at which the effect is half-maximal) in the series on HT-29 [1] was 8.9 nM. In addition, the Activity was 90% in the series with Mus musculus [2]; “Dde” with HT-29 [4]; “Dde” with HT-29 [8]; “Dde” in the series on L929; “Dde” in the series with U-937. Besides, the CC50 – broadly, the concentration giving 50% cytotoxicity – in [3] is more than 100000 nM. Further, the inhibition result (in the series with HT-29 [5]; in [13]) was “Active” each time. The inhibition (usually the drop in the measured response relative to a control, in per cent) in [6] is 100%; in [7], 100%; in series [9], 100%; in [10], 100%; in series [12], “Dde”; in series [15], “Dde”. For the same compound, the inhibition in [16] is 100%; in series [17], “Dde”. Also, the Kd (in general, the equilibrium constant for the complex coming apart) in series [11] stood at 60 nM. For the same compound, in the series on Mus musculus [14], the outcome was Active.

In the case of `CN1C(=S)[C@@H](NC(=O)c2nc(Cc3ccccc3)n(C)n2)COc2ccccc21`, the inhibition result (in the series with HT-29 [18]; in series [28]) was “Active” each time. In addition, the inhibition in series [19] is 100%; in series [21], 100%; in series [23], 100%; in series [12], “Dde”; in series [25], 100%; in [26], 100%. Further, the inhibition result in [15] and in series [17] was “Dde” each time. Moreover, in the series with HT-29 [1], the EC50 is 2.5 nM. For the same compound, the Activity was 100% with Mus musculus [20]; “Dde” in the series with HT-29 [4]; 100% in the series on Mus musculus [22]; “Dde” in the series on HT-29 [8]; “Dde” in the series on L929; 70% in the series with Mus musculus [24]. Moreover, the Activity entry in the series with U-937 is “Dde”. Further, the CC50 in [3] was more than 100000 nM. In series [11], the dissociation constant Kd turned out to be 31 nM. Moreover, the result with Mus musculus [27] was Active.
